Measured values as given in patent US10882833B2, “Phenylate derivative, preparation method therefor, and pharmaceutical composition and uses thereof” (Institute of Materia Medica, Chinese Academy of Medical …, priority 2016, dated 2021).
Where a name gives a salt, the structure may show the parent alone.

molecular target: interaction between PD-1 and PD-L1 (Homo sapiens (Human), UniProt Q9NZQ7); assay: Cisbio PD-1/PD-L1 binding assay kit (HTRF); conditions: 8-10 concentrations, read-out: IC50, inhibitory activity at molecular level on the interaction between PD-1 and PD-L1
Excerpt: • 1. In vitro activity evaluation: Cisbio PD-1/PD-L1 binding assay kit was applied for the detection method of in vitro enzymology level. Screening Principles and Methods of PD-1/PD-L1 Small Molecule Inhibitors • 1) Principle: PD-1 protein is with HIS tag, and PD-1 ligand PD-L1 is with hFc tag. Eu labeled anti-hFc antibody and XL665 labeled anti-HIS antibody are combined with the above two label proteins respectively. After laser excitation, energy can be transferred from donor Eu to receptor XL665, allowing XL665 to glow. […] Reagents should be dispensed in the following order. For 384-well white ELISA plate, 2 μl of diluent or target compound diluted with diluent was added to each well, and then 4 μl of PD-1 protein and 4 μl of PD-L1 protein were added per well, incubated for 15 min at room temperature; and 10 μl of a mixture of anti-Tag1-Eu3+ and anti-Tag2-XL665 was added per well and incubated for 1 h to 4 h at room temperature and the fluorescence signals at 665 nm and 620 nm were measured with an Envison instrument. HTRF rate=(665 nm/620 nm)*10^4. 8-10 concentrations were detected for each compound and IC50 was calculated by Graphpad software. • 3) The results of the screening were shown in Table 1.

Sequence of interaction between PD-1 and PD-L1 (Q9NZQ7 19-238): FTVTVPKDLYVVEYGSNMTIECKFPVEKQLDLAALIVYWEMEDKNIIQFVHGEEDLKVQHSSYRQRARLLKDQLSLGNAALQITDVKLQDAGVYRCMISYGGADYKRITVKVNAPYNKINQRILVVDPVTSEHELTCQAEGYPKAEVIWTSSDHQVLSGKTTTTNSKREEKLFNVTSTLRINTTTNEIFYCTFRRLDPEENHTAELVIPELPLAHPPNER

Molecule | IC50 [µM]
CON(C)C(=O)COc1cc(OCc2cccc(-c3ccccc3)c2Br)c(Cl)cc1CN[C@@H](CO)C(=O)O [Example 12, N-(4-(2-bromo-3-phenylbenzyloxy)-5-chloro-2-(N-methoxy-N-methylcarbamoylmethoxy)benzyl)serine] | 0.191
C[C@@H](O)[C@H](NCc1cc(Cl)c(OCc2cccc(-c3ccccc3)c2Br)cc1OCC1CC1)C(=O)O [Example 8, N-(4-(2-bromo-3-phenylbenzyloxy)-5-chloro-2-(cyclopropylmethoxy)benzyl)threonine] | 0.0102
NC(=O)NCCC[C@H](NCc1cc(Cl)c(OCc2cccc(-c3ccccc3)c2Br)cc1OCC1CC1)C(=O)O [Example 11, N-(4-(2-bromo-3-phenylbenzyloxy)-5-chloro-2-(cyclopropylmethoxy)benzyl)Citrulline] | 1.41
NC(=O)COc1cc(OCc2cccc(-c3ccccc3)c2Br)c(Cl)cc1CN[C@@H](CO)C(=O)O [Example 1, (S)—N-(4-(2-bromo-3-phenylbenzyloxy)-5-chloro-2-(carbamoylmethoxy)benzyl)serine] | 0.312
O=C(O)[C@H](CO)NCc1cc(Cl)c(OCc2cccc(-c3ccccc3)c2Br)cc1OCC(=O)N1CCOCC1 [Example 13, N-(4-(2-bromo-3-phenylbenzyloxy)-5-chloro-2-(2-morpholino-2-oxoethoxy)benzyl)serine] | 0.0413
O=C(O)[C@@H]1C[C@H](O)CN1Cc1cc(Cl)c(OCc2cccc(-c3ccc4c(c3)OCCO4)c2Br)cc1OCC1CC1 [Example 17, (S,S)—N-(4-(2-bromo-3-(2,3-dihydrobenzo[b][1,4]dioxin-6-yl)benzyloxy)-5-chloro-2-(cyclopropylmethoxy)benzyl)-4-hydroxyproline] | 0.0405
O=C(O)[C@H](CO)NCc1cc(Cl)c(OCc2cccc(-c3ccccc3)c2Br)cc1OCC1CC1 [Example 14, (S)—N-(4-(2-bromo-3-phenylbenzyloxy)-5-chloro-2-(cyclopropylmethoxy)benzyl)serine] | 0.0417
CC(=O)NCCNCc1cc(Cl)c(OCc2cccc(-c3ccccc3)c2Br)cc1OCC1CC1 [Example 10, N-acetylaminoethyl-4-(2-bromo-3-phenylbenzyloxy)-5-chloro-2-(cyclopropylmethoxy)benzylamine] | 1
C=CCOc1cc(OCc2cccc(-c3ccccc3)c2Br)c(Cl)cc1CNCCNC(C)=O [Example 3, N-acetylaminoethyl-4-(2-bromo-3-phenylbenzyloxy)-5-chloro-2-allyloxy benzylamine] | 0.126
CN(C)C(=O)COc1cc(OCc2cccc(-c3ccccc3)c2Br)c(Cl)cc1CNC(CO)C(=O)O (stereo not shown) [Example 6] | 0.0425
CC(=O)NCCNCc1cc(Cl)c(OCc2cccc(-c3ccccc3)c2Br)cc1OCC1CC1 [Example 5, N-acetylaminoethyl-4-(2-bromo-3-phenylbenzyloxy)-5-chloro-2-(cyclopropylmethoxy)benzylamine] | 1.15
C#CCOc1cc(OCc2cccc(-c3ccccc3)c2Br)c(Cl)cc1CNCCNC(C)=O [Example 4, N-acetylaminoethyl-4-(2-bromo-3-phenylbenzyloxy)-5-chloro-2-(prop-2-ynyloxy)benzylamine] | 1.8
COc1cc(OCc2cccc(-c3ccccc3)c2Br)c(Cl)cc1CNCCNC(C)=O [Example 2, N-acetylaminoethyl-4-(2-bromo-3-phenylbenzyloxy)-5-chloro-2-methoxy benzylamine hydrochloride] | 0.732
O=C(COc1cc(OCc2cccc(-c3ccccc3)c2Br)c(Cl)cc1CN1CCCC[C@H]1C(=O)O)NO [Example 15, (S)—N-(4-(2-bromo-3-phenylbenzyloxy)-5-chloro-2-(N-hydroxycarbamoylmethoxy)benzyl)Pipecolinic Acid] | 0.183
NC(=O)[C@H](CO)NCc1cc(Cl)c(OCc2cccc(-c3ccccc3)c2Br)cc1OCC1CC1 (stereo in doubt) [Example 9, 2-(4-(2-bromo-3-phenylbenzyloxy)-5-chloro-2-(cyclopropylmethoxy)benzylamino)-3-hydroxypropanamide] | 0.0816

system: pleural mesothelioma (PM); assay: not given; conditions: 25 patients with pleural mesothelioma; cited from earlier work

Molecule | disease control rate [%] | overall response rate (ORR) [%]
pembrolizumab [Keytruda] | 76 | 28

system: advanced Hodgkin's lymphoma (HL); assay: not given; conditions: patients with no treatment response to any approved drug; cited from earlier work

Molecule | treatment outcome in advanced Hodgkin's lymphoma
pembrolizumab [Keytruda] | complete remission
nivolumab [Opdvio] | complete remission
